Values joined by “and” are separate entries in the source; they are usually repeats but may differ in a detail not shown here. Equal values may be shown once.
Experiments:
[1] = instrument: TW, calibrated with phosphatidylcholines (ESI+) and phosphatidylethanolamines (ESI-)
[2] = instrument: DT, single field, calibrated with Agilent tune mix (Agilent)
[3] = instrument: DT, stepped-field
[4] = instrument: TW, calibrated with phosphatidylcholines (ESI+) and phosphatidylethanolamines (ESI-); remark: listed apart in the source
[5] = instrument: DT, stepped-field; remark: listed apart in the source
[6] = [M+Na]+; instrument: DT; stepped-field
[7] = instrument: DT, single field

Compound: CCCCCCCCCCCCCCC=CCC(=O)OC[C@H](CO[C@@H]1O[C@H](CO[C@H]2O[C@H](CO)[C@H](O)C(O)C2O)[C@H](O)C(O)C1O)OC(=O)CC=CCCCCCCCCCCCCCC (some centres not stated) [DGDG(36:2)]
- collision cross section (N2) ([1]; [M+K]+): 315.3 Å²
- collision cross section (N2) ([1]; [M+NH4]+): 315.2 Å²
- collision cross section (N2) ([1]; [M+Na]+): 312.4 Å²

Compound: CCCC/C=C\CCCCCCCC(=O)O[C@H](COC(=O)CCCCCCCCCCCCC)COP(=O)(O)OC[C@@H](O)CO [PG(28:1)]
- collision cross section (N2) ([1]; [M-H]-): 251.2 Å²

Compound: CCCCC/C=C\C/C=C\CCCCCCCCCCCC(=O)O[C@H](COC(=O)CCCCCCCCCCCCC)COP(=O)(O)OC[C@H](N)C(=O)O [PS(36:2)]
- collision cross section (N2) ([2]; [M+H]+): 283 Å²
- collision cross section (N2) ([2]; [M+Na]+): 284.2 Å²
- collision cross section (N2) ([2]; [M-H]-): 277.5 Å²
- collision cross section (N2) ([3]; [M-H]-): 285 Å² and 286.5 Å²
- collision cross section (N2) ([4]; [M-H]-): 277.4 Å²

Compound: CCCCC/C=C\C/C=C\C/C=C\C/C=C\CCCC(=O)O [Arachidonic acid]
- collision cross section (N2) ([5]; [M-H]-): 183.66 Å²

Compound: CC/C=C\C/C=C\C/C=C\CCCCCCCC(=O)O [Linolenic acid]
- collision cross section (N2) ([5]; [M-H]-): 174.88 Å²

Compound: CCCC/C=C\CCCCCCCC(=O)O[C@H](CO/C=C\CCCCCCCCCCCCC)COP(=O)(O)OC[C@@H](O)CO [PG(p29:1)]
- collision cross section (N2) ([1]; [M-H]-): 252.2 Å²

Compound: CCCCC/C=C\C/C=C\C/C=C\CCCCC(=O)O[C@H](COCCCCCCCCCCCCCCCC)COP(=O)(O)OCCN [PE(o34:3)]
- collision cross section (N2) [6]: 278 Å²
- collision cross section (N2) ([3]; [M-H]-): 266.5 Å²

Compound: CCCCCCCCCCCCCCCCCC(=O)O[C@H](COC(=O)CCCCCCCCCCCC)COP(=O)(O)O [PA(31:0)]
- collision cross section (N2) ([1]; [M-H]-): 248.2 Å²

Compound: CN1c2c(nc(N)[nH]c2=O)NCC1CNc1ccc(C(=O)N[C@H](CCC(=O)O)C(=O)O)cc1 (some centres not stated) [5-Methyl-THF]
- collision cross section (N2) ([5]; [M+H]+): 197.52 Å²
- collision cross section (N2) ([5]; [M-H]-): 200.57 Å²

Compound: CSCC[C@H](NC(=O)[C@H](CC(C)C)NC(=O)CNC(=O)[C@H](Cc1ccccc1)NC(=O)[C@H](Cc1ccccc1)NC(=O)[C@H](CCC(N)=O)NC(=O)[C@H](CCC(N)=O)NC(=O)[C@@H]1CCCN1C(=O)[C@H](CCCCN)NC(=O)[C@@H]1CCCN1C(=O)[C@@H](N)CCCN=C(N)N)C(N)=O [Substance P]
- collision cross section (N2) ([5]; [M+2H]2+): 399.88 Å²
- collision cross section (N2) ([5]; [M+3H]3+): 495.74 Å²
- collision cross section (N2) ([5]; [M+H]+): 362.51 Å²

Compound: CCCCCCCCCCCCCCCCCCCC(=O)O [Eicosanoic acid]
- collision cross section (N2) ([5]; [M-H]-): 186.17 Å²

Compound: CCCCCC/C=C\CCCCCCCC(=O)O [Palmitoleic acid]
- collision cross section (N2) ([5]; [M-H]-): 167.95 Å²

Compound: CC[C@H](C)[C@H](NC(=O)[C@H](Cc1ccc(O)cc1)NC(=O)[C@@H](NC(=O)[C@H](CCCN=C(N)N)NC(=O)[C@@H](N)CC(=O)O)C(C)C)C(=O)N[C@@H](Cc1cnc[nH]1)C(=O)N1CCC[C@H]1C(=O)N[C@@H](Cc1ccccc1)C(=O)N[C@@H](Cc1cnc[nH]1)C(=O)N[C@@H](CC(C)C)C(=O)O [Angiotensin I]
- collision cross section (N2) ([5]; [M+2H]2+): 387.3 Å²
- collision cross section (N2) ([5]; [M+3H]3+): 474.71 Å²
- collision cross section (N2) ([5]; [M+4H]4+): 549.24 Å²
- collision cross section (N2) ([5]; [M+H]+): 357.31 Å²

Compound: O=c1[nH]c(=O)c2[nH]c(=O)[nH]c2[nH]1 [Uric acid]
- collision cross section (N2) ([5]; [M-H]-): 126.93 Å²

Compound: CCCCCC/C=C/CCCCCCCC(=O)OC[C@@H](O)COP(=O)([O-])OCC[N+](C)(C)C [LPC(16:1)]
- collision cross section (N2) ([2]; [M+HCOO]-): 231.3 Å²
- collision cross section (N2) ([3]; [M+H]+): 227.7 Å²
- collision cross section (N2) ([4]; [M+H]+): 223.4 Å²

Compound: CCCCCCCCCCCCCCCCCC(=O)OC[C@@H](O)COP(=O)(O)O[C@H]1C(O)C(O)C(O)[C@@H](O)C1O (some centres not stated) [LPI(18:0)]
- collision cross section (N2) ([2]; [M+H]+): 244.7 Å²
- collision cross section (N2) ([2]; [M-H]-): 236.8 Å²
- collision cross section (N2) ([3]; [M-H]-): 236.1 Å²

Compound: CCCCCC/C=C\CCCCCCCCCC(=O)O[C@H](COC(=O)CCCCCCC/C=C\CCCCCCCC)COP(=O)([O-])OCC[N+](C)(C)C [PC(36:2)]
- collision cross section (N2) ([7]; [M+H]+): 288.83 Å² and 290.58 Å²
- collision cross section (N2) ([7]; [M+Na]+): 293.18 Å²
- collision cross section (N2) ([2]; [M+HCOO]-): 291 Å²
- collision cross section (N2) ([2]; [M+H]+): 291.3 Å²
- collision cross section (N2) ([2]; [M+Na]+): 295.1 Å²
- collision cross section (N2) ([3]; [M+H]+): 303.1 Å²
- collision cross section (N2) ([4]; [M+CH3COO]-): 293.3 Å²
- collision cross section (N2) ([4]; [M+H]+): 288.5 Å²

Compound: CCCCC/C=C\C/C=C\C/C=C\CCCCC(=O)O[C@H](COC(=O)CCCCCCCCC/C=C\C/C=C\CCCCC)COP(=O)(O)O[C@H]1C(O)C(O)C(O)[C@@H](O)C1O (some centres not stated) [PI(38:5)]
- collision cross section (N2) ([2]; [M+H]+): 299.9 Å²
- collision cross section (N2) ([2]; [M+Na]+): 298.7 Å²
- collision cross section (N2) ([2]; [M-H]-): 291.8 Å²
- collision cross section (N2) ([3]; [M-H]-): 302 Å² and 299.6 Å²
- collision cross section (N2) ([4]; [M+Na]+): 294.5 Å²
- collision cross section (N2) ([4]; [M-H]-): 290.9 Å²
